Columns and labels:
[1] = test system: black bean aphids (Aphis fabae); assay: Root-systemic test: solution pipetted into bottle with field bean (Vicia faba), aphid mortality; settings: 4 ml aqueous solution pipetted into bottle; after 3 and 6 days of storage; concentration 500 ppm or less
Description: Germinated field bean seeds (Vicia faba) with seed roots were transferred into brown glass bottles filled with tap water. Four milliliters of an aqueous solution of the formulated preparation to be examined were pipetted into the brown glass bottle. The field bean was then heavily populated with about 100 black bean aphids (Aphis fabae). Plants and aphids were then stored in a climatized chamber (16 hours of light/day, 25° C., 40-60% relative atmospheric humidity). After 3 and 6 days of storage, the root-systemic effect of the preparation as aphid mortality was determined.

[2] = test system: black bean aphids (Aphis fabae); assay: Dip test: field bean plants (Vicia faba) and aphids dipped into solution of preparation, aphid mortality; settings: plants and aphids dipped 5 seconds; after 3 and 6 days of storage; concentration 500 ppm or less
Description: Germinated field bean seeds (Vicia faba) with seed roots were transferred into brown glass bottles filled with tap water and then populated with about 100 black bean aphids (Aphis fabae). Plants and aphids were then dipped into an aqueous solution of the formulated preparation to be examined for 5 seconds. After they had drained, plants and animals were stored in a climatized chamber (16 hours of light/day, 25° C., 40-60% relative atmospheric humidity). After 3 and 6 days of storage, the mortality of the preparation on the aphids was determined.

Row | Compound | root-systemic effect of the preparation as aphid mortality [1] | mortality of the preparation on the aphids [2]
1 | CCCCCSNC(=O)c1cnccc1C(F)(F)F [Example 48] | active | active
2 | CC(C)N(Sc1ccccc1)C(=O)c1cnccc1C(F)(F)F [Example 4] | active | active
3 | CC(C)SNC(=O)c1cnccc1C(F)(F)F [Example 29] | active | active
4 | CCC(C)SNC(=O)c1cnccc1C(F)(F)F (stereo not shown) [Example B, N-(2-butylthio)-(4-trifluoromethyl)nicotinamide] | active | active
5 | O=C(NSCc1ccc(C(F)(F)F)cc1)c1cnccc1C(F)(F)F [Example 84] | active | active
6 | C=CCSNC(=O)c1cnccc1C(F)(F)F [Example 44] | active | active
7 | CC(C)CCSNC(=O)c1cnccc1C(F)(F)F [Example 45] | active | active
8 | O=C(NSC1CC1)c1cnccc1C(F)(F)F [Example 98] | active | active
9 | Cc1ccc(SN(C(=O)c2cnccc2C(F)(F)F)C(C)C)cc1 [Example 6] | active | active
10 | O=C(NSC1CCCCC1)c1cnccc1C(F)(F)F [Example A, N-cyclohexylthio-(4-trifluoromethyl)nicotinamide] | active | active
11 | CCC(C)CSNC(=O)c1cnccc1C(F)(F)F (stereo not shown) [Example 38] | active | active
12 | CC(C)SN=C(OCCC(C)[N+](=O)[O-])c1cnccc1C(F)(F)F (stereo not shown) [Example 124] | active | active
13 | O=C(NSc1ccc(Cl)cc1)c1cnccc1C(F)(F)F [Example 18] | active | active
14 | O=C(NSCc1cccc(C(F)(F)F)c1)c1cnccc1C(F)(F)F [Example 85] | active | active
15 | CCN(Sc1ccccc1)C(=O)c1cnccc1C(F)(F)F [Example 3] | active | active
16 | O=C(NSC1CCCC1)c1cnccc1C(F)(F)F [Example 1] | active | active
17 | O=C(NSc1ccc(F)cc1)c1cnccc1C(F)(F)F [Example 23] | active | active
18 | O=C(NSc1ccccc1)c1cnccc1C(F)(F)F [Example 2] | active | active
19 | CCCCCCSNC(=O)c1cnccc1C(F)(F)F [Example 49] | active | active
20 | CCCCCCCSNC(=O)c1cnccc1C(F)(F)F [Example 50] | active | active
